Test results published in the NIST ThermoML archive (doi:10.1016/j.fluid.2015.03.033).
Where “and” joins values, the source holds several entries; their conditions need not be identical. Identical values can stand only once.

Tests used:
[1] = Liquid, Closed cell (Static) method
[2] = excess molar enthalpy (molar enthalpy of mixing); xn = mol fraction of the nth substance listed; conditions: 303.15 K, 100 kPa, Liquid, Calvet calorimetry

CCCCCCC [heptane]
[1]
Conditions | vapor or sublimation pressure [kPa]
263.45 K | 0.817
273.27 K | 1.548
283.21 K | 2.77
293.25 K | 4.772
303.15 K | 7.807
313.12 K | 12.41
323.1 K | 18.98
333.07 K | 28.13
343.04 K | 40.62
353.01 K | 57.56

Cc1ccccc1 [toluene]
[1]
Conditions | vapor or sublimation pressure
263.64 K | 0.484 kPa
273.47 K | 0.925 kPa
283.32 K | 1.68 kPa
293.24 K | 2.926 kPa
298.25 K | 3.803 kPa
303.21 K | 4.896 kPa
303.23 K | 4.896 kPa and 4.894 kPa
313.19 K | 7.872 kPa
313.22 K | 7.872 kPa
323.22 K | 12.25 kPa
333.2 K | 18.57 kPa
343.16 K | 27.2 kPa

Cc1cnccn1 [2-methylpyrazine] + Cc1ccccc1
[2]
Conditions | excess molar enthalpy [kcal/mol]
x1 = 0.156 | 0.00669
x1 = 0.256 | 0.0115
x1 = 0.421 | 0.0174
x1 = 0.465 | 0.0179
x1 = 0.475 | 0.0179
x1 = 0.561 | 0.0165
x1 = 0.698 | 0.00932
x1 = 0.76 | 0.00693

C1CCCCC1 [cyclohexane]
[1]
Conditions | vapor or sublimation pressure [kPa]
283.32 K | 6.389
288.28 K | 8.195
293.27 K | 10.42
298.25 K | 13.17
303.27 K | 16.45
313.24 K | 24.97
323.21 K | 36.72
333.21 K | 52.48
343.18 K | 72.98
353.14 K | 99.11

Cc1cnccn1 [2-methylpyrazine] + CCCCCCC
[2]
Conditions | excess molar enthalpy [kcal/mol]
x1 = 0.082 | 0.135
x1 = 0.175 | 0.257
x1 = 0.335 | 0.353
x1 = 0.411 | 0.369
x1 = 0.481 | 0.37
x1 = 0.523 | 0.369
x1 = 0.622 | 0.344
x1 = 0.704 | 0.298
x1 = 0.809 | 0.231
x1 = 0.877 | 0.167

Cc1cnccn1 [2-methylpyrazine]
[1]
Conditions | vapor or sublimation pressure [kPa]
263.72 K | 0.109
273.47 K | 0.23
283.27 K | 0.457
293.24 K | 0.866
303.18 K | 1.563
313.12 K | 2.697
323.13 K | 4.476
333.11 K | 7.151
343.05 K | 11.03
353.03 K | 16.61
362.95 K | 24.08

Cc1cnccn1 [2-methylpyrazine] + C1CCCCC1
[2]
Conditions | excess molar enthalpy [kcal/mol]
x1 = 0.094 | 0.163
x1 = 0.153 | 0.234
x1 = 0.251 | 0.308
x1 = 0.381 | 0.356
x1 = 0.474 | 0.364
x1 = 0.566 | 0.36
x1 = 0.639 | 0.331
x1 = 0.766 | 0.242
x1 = 0.845 | 0.175
